In assay [1] the target is Ribosomal protein S6 kinase alpha-3 (Homo sapiens, UniProt P51812). Put plainly: Inhibition of RSK2.
Assay [2] has as its target Tyrosine-protein kinase Lck (Homo sapiens, UniProt P06239). Kind of assay: Inhibition of LCK.
Assay [3] addresses Vascular endothelial growth factor receptor 2 (Homo sapiens, UniProt P35968). Put plainly: Inhibition of VEGFR2.
In assay [4] the target is T1, Aurora kinase B (Homo sapiens, UniProt Q96GD4). Put plainly: Inhibition of aurora B kinase using 5TAMRA-GRTGRRNSICOOH as substrate by fluorescent assay.
Assay [5] concerns the target T2, Serine/threonine-protein kinase Chk1 (Homo sapiens, UniProt O14757).
T2 sequence (O14757 whole entry): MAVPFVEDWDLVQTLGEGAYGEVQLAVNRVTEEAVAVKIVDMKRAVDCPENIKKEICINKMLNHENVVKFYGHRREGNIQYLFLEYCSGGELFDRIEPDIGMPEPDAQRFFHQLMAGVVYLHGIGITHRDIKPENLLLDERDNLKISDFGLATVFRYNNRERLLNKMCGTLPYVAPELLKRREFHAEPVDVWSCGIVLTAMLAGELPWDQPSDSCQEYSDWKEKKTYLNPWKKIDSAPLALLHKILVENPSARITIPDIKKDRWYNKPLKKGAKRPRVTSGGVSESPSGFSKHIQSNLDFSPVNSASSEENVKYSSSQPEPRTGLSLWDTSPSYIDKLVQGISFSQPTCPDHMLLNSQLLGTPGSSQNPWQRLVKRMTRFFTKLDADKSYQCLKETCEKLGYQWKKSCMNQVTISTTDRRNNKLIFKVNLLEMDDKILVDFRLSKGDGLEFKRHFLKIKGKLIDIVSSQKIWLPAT
Put plainly: Inhibition of Chk1.

Assay [6] has as its target T1, Aurora kinase B. Put plainly: Inhibition of aurora B kinase in human HCT116 cells assessed as inhibition of histone H3 phosphorylation incubated for 1 hr by Hoechst 33342 staining based microscopic analysis. It counts as cell-based, HCT-116.
Assay [7] has as its target T3, Interleukin-1 receptor-associated kinase 4 (Homo sapiens, UniProt Q9NWZ3).
T3 sequence (Q9NWZ3 whole entry): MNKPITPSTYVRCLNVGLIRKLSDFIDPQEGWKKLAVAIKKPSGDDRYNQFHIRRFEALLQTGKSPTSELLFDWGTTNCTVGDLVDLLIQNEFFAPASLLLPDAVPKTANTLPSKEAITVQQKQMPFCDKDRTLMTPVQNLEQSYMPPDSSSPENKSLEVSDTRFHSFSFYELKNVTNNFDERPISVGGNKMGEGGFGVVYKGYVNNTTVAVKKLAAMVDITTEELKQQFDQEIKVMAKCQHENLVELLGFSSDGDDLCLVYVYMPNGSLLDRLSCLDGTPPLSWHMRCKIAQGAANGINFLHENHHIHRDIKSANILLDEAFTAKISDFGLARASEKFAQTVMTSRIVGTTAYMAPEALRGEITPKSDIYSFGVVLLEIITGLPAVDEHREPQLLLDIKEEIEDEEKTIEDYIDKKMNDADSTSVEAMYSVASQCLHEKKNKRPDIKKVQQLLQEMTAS
Kind of assay: Inhibition of IRAK4.

The target in a further assay is T4, Aurora kinase A (Homo sapiens, UniProt O14965).
T4 sequence (O14965 whole entry): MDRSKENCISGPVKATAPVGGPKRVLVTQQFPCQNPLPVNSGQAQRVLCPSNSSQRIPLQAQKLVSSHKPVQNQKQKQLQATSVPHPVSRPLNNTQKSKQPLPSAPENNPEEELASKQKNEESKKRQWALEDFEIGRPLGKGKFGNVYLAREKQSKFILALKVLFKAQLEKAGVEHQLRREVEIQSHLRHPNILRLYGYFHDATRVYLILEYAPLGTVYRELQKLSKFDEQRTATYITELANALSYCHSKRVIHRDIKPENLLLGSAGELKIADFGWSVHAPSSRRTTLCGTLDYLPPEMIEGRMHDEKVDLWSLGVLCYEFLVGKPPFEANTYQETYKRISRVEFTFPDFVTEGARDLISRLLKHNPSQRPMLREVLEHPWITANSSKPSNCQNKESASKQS
Put plainly: Inhibition of aurora A kinase using 5TAMRA-GRTGRRNSICOOH as substrate by fluorescent assay.

A value given as a limit tells only on which side of the number the result lay.

Tyrosine-protein kinase Lck, sequence (P06239 whole entry): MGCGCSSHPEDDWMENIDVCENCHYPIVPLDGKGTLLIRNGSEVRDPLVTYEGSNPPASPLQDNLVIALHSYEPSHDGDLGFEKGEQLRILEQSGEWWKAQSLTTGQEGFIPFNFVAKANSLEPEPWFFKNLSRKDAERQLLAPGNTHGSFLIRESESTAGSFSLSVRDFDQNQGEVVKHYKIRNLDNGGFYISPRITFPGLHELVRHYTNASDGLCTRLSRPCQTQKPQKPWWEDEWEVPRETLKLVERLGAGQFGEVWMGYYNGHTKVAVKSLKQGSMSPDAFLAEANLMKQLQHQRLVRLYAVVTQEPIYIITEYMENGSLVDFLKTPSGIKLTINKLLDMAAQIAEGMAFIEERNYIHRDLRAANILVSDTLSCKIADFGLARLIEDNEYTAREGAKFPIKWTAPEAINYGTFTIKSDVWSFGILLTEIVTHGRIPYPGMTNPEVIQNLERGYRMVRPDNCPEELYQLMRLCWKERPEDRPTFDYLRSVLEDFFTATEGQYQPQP
Vascular endothelial growth factor receptor 2, sequence (P35968 whole entry): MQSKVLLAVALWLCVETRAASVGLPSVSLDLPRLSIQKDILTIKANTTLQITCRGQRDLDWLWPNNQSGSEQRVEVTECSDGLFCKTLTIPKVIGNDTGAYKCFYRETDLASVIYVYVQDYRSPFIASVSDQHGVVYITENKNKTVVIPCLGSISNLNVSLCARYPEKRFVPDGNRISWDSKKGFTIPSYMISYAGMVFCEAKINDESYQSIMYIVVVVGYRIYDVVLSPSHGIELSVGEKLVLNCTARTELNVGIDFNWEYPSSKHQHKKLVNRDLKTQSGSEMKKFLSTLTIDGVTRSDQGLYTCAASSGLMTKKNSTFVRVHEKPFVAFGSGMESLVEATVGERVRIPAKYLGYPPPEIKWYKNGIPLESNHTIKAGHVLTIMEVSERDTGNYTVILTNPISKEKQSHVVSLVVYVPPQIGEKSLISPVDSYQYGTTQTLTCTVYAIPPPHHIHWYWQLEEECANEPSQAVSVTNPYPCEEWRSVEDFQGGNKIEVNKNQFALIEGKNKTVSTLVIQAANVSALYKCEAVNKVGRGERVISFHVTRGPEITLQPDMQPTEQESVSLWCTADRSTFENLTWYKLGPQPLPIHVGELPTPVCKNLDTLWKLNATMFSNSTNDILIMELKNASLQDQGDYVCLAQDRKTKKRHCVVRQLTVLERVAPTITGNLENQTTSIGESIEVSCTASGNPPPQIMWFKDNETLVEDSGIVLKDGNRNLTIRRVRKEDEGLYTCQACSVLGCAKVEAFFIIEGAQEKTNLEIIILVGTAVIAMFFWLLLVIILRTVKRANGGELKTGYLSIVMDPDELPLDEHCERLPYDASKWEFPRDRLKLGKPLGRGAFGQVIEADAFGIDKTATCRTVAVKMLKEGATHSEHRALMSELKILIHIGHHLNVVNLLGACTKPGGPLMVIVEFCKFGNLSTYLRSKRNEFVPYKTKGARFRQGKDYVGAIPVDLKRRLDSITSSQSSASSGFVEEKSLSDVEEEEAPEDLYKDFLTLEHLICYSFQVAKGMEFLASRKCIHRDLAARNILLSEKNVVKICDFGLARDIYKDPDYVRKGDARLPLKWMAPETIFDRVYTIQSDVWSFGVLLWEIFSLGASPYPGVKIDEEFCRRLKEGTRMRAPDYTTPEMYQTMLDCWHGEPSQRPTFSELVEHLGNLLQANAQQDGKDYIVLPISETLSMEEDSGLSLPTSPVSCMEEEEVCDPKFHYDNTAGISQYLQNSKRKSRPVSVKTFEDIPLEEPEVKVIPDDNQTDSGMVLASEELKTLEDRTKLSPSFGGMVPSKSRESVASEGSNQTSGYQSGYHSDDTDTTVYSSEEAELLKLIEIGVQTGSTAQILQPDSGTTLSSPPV
T1 sequence (Q96GD4 whole entry): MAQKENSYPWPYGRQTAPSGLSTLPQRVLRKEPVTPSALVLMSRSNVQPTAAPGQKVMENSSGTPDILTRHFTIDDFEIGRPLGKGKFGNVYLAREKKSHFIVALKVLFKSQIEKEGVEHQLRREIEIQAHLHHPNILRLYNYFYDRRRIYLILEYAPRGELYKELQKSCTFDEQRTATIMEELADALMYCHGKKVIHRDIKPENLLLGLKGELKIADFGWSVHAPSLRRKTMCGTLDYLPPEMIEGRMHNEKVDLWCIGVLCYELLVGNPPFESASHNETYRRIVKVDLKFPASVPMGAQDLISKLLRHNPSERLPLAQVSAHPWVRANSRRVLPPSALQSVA
Ribosomal protein S6 kinase alpha-3, sequence (P51812 whole entry): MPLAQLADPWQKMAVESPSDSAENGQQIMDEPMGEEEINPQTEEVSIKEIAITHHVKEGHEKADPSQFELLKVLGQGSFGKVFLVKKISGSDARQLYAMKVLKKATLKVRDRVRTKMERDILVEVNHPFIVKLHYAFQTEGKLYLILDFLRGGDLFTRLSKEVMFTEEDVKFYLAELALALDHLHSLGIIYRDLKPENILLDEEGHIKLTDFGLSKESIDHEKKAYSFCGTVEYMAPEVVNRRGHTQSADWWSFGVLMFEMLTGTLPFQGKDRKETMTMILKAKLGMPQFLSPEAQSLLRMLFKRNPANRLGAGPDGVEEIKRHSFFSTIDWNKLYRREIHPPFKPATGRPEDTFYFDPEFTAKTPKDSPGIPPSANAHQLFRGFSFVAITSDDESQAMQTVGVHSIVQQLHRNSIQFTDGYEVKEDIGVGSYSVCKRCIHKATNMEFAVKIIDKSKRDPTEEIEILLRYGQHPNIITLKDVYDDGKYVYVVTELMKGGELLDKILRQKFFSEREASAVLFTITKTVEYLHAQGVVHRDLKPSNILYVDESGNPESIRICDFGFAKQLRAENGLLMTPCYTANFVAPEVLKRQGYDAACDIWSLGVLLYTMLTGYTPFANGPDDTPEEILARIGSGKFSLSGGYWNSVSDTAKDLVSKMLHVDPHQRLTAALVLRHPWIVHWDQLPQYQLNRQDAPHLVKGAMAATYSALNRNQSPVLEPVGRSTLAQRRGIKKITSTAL

For `Cc1cn2c(-c3cn[nH]c3)cnc2c(Nc2cc(CN3CCCCC3)ns2)n1`, the IC50 (in general, the midpoint of a concentration-inhibition curve) in assay [1] is 360 nM; in assay [2] it was 12 nM; in assay [3], 4 nM; against Aurora kinase B [4] it was not above 13 nM; in assay [5], 20 nM; in assay [7], 56 nM. Also, the half-maximal inhibitory concentration (IC50) at Aurora kinase A is not above 4 nM. For the same molecule, the 50% effective concentration (EC50) (in general, the concentration that produces a half-maximal response) at Aurora kinase B [6] stood at 50 nM.

As for `Cc1cn2c(-c3cnn(CC(=O)NCc4cccs4)c3)cnc2c(Nc2cc(CN3CCCC(C)C3)ns2)n1` (configuration not stated), the IC50 in assay [1] is 7700 nM; in assay [2], 579 nM; in assay [3], 234 nM; at Aurora kinase B [4], not above 13 nM; in assay [5], 300 nM; in assay [7], 873 nM. Moreover, half-maximal inhibition at Aurora kinase A (IC50) required 27 nM. Moreover, at Aurora kinase B [6], the EC50 was 193 nM.

Turning to `Cc1cn2c(-c3cnn(CC(=O)Nc4cccc(F)c4F)c3)cnc2c(Nc2cc(CN3CCCCC3)ns2)n1`, the IC50 in assay [1] was 4300 nM; in assay [2] it was more than 3000 nM; in assay [3], 481 nM; against Aurora kinase B [4], not above 13 nM; in assay [5] it was 20 nM; in assay [7] it was 1420 nM. On Aurora kinase A, this molecule yielded an IC50 of 122 nM. Besides, at Aurora kinase B [6], the EC50 worked out at 58 nM.

In the case of `Cc1cn2c(-c3cnn(CC(=O)Nc4ccccn4)c3)cnc2c(Nc2cc(CN3CCCC(C)C3)ns2)n1` (configuration not stated), the results for the IC50 on Aurora kinase B [4] and against Aurora kinase A were 32 nM and 185 nM, respectively. In addition, the EC50 on Aurora kinase B [6] was 285 nM.

Regarding `Cc1cn2c(-c3cnn(CC(=O)Nc4ccncc4)c3)cnc2c(Nc2cc(CN3CCCC(C)C3)ns2)n1` (configuration not stated), the 50% inhibitory concentration (IC50) in assay [1] was 1100 nM; in assay [2], 731 nM; in assay [3] it was 108 nM; on Aurora kinase B [4], not above 13 nM; in assay [5] it was 100 nM; in assay [7], 1140 nM. The molecule also came in with an IC50 against Aurora kinase A of 12 nM. The EC50 at Aurora kinase B [6] is 83 nM.

Regarding `Cc1cn2c(-c3cnn(CC(=O)Nc4cc[n+]([O-])cc4)c3)cnc2c(Nc2cc(CN3CCCC(C)C3)ns2)n1` (configuration not stated), the 50% inhibitory concentration (IC50) amounted to 91 nM on Aurora kinase B [4] and 68 nM against Aurora kinase A. At Aurora kinase B [6], the EC50 is 402 nM.

`Cc1cn2c(-c3cnn(CC(=O)Nc4ccncc4F)c3)cnc2c(Nc2cc(CN3CCCC(C)C3)ns2)n1` (configuration not stated): the IC50 in assay [1] was 6800 nM; in assay [2], 271 nM; in assay [3], 253 nM; on Aurora kinase B [4], not above 13 nM; in assay [5], 300 nM; in assay [7], 1220 nM. The IC50 against Aurora kinase A is less than 4 nM. Also, the EC50 at Aurora kinase B [6] was determined as 62 nM.

In the case of `Cc1cn2c(-c3cnn(CC(=O)Nc4cccc(F)n4)c3)cnc2c(Nc2cc(CN3CCCC(C)C3)ns2)n1` (configuration not stated), the IC50 was found to be 28 nM against Aurora kinase B [4] and 102 nM at Aurora kinase A. Further, the EC50 on Aurora kinase B [6] turned out to be 164 nM.

Take `Cc1cn2c(-c3cnn(CC(=O)Nc4cccnc4F)c3)cnc2c(Nc2cc(CN3CCCC(C)C3)ns2)n1` (configuration not stated): the results for the IC50 against Aurora kinase B [4] and against Aurora kinase A were 81 nM and 753 nM, respectively. Moreover, the EC50 at Aurora kinase B [6] was determined as 110 nM.

For the origin of these results see ChEMBL document CHEMBL2021851, “Synthesis and SAR studies of imidazo-[1,2-a]-pyrazine Aurora kinase inhibitors with improved off-target kinase selectivity” (Bioorg Med Chem Lett, 2012).
